The test system of one series is NLRP3 inflammasome. As to conditions: limited potency, nonspecific; cited from earlier work.
Series [1] can be described thus: PK protocol (intravenous and oral administration). In kind it is in vivo, male Sprague Dawley rats. As to conditions: male, Sprague Dawley, plasma, rat; for Vd: read-out: Vdss.
In series [2] the target is T1, NLRP3 (Homo sapiens, UniProt Q96P20). In words: Human whole blood IL1β release assay. In kind it is cell-based. Set-up: Plate out 80 μl of whole blood containing 1 μg/ml of LPS; from tissue; host or cells: human whole blood from healthy donors, LPS-primed, nigericin-stimulated. As to conditions: LPS 1 μg/ml, nigericin 10 μM, IL-1β AlphaLisa, read-out: HWB IC50. The essentials: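 Donor Li-heparin whole blood with 1 μg/ml LPS preincubated 3 h at 37 °C with compound (8-point half-log series, 10 μM top; 0.1% DMSO). Nigericin (10 μM final) added for 1 h, then supernatant IL-1β measured by AlphaLISA. IC50 from 4-parameter variable-slope fit.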
T1 sequence (Q96P20 whole entry): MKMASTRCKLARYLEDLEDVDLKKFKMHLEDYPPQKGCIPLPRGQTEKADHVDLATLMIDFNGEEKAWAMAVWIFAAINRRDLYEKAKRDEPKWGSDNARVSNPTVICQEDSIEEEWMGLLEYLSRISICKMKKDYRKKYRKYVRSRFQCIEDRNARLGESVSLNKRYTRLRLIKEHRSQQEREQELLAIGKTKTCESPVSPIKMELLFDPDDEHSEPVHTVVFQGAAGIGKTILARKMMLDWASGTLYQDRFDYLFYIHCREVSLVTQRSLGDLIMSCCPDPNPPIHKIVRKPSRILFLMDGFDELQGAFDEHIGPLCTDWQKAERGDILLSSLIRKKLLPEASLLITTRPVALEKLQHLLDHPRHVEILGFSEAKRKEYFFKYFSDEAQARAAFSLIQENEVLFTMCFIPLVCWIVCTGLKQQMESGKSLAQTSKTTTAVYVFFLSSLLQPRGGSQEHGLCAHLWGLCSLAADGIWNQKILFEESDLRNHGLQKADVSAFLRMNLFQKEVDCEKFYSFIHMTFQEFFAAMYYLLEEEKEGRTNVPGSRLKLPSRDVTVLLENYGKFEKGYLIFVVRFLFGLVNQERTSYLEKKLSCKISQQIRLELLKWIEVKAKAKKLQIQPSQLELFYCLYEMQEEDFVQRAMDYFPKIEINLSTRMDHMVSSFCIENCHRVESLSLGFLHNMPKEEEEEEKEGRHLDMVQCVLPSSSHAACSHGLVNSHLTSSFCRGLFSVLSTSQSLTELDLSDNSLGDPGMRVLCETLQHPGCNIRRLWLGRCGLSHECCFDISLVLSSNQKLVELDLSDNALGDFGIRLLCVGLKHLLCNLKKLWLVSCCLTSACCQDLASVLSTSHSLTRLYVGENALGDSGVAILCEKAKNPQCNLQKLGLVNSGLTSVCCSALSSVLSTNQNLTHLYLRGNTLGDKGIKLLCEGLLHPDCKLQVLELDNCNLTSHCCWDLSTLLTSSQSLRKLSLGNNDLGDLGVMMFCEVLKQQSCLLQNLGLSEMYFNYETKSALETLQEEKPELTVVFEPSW
On the technique in general: Alpha assays give light when donor and acceptor beads are brought close together.

Series [3] addresses T1, NLRP3. As to the kind of experiment: THP-1 cells pyroptosis assay. In kind it is cell-based. Also on record: Seed THP-1 cells (25,000 cells/well) containing 1.0 μg/ml LPS; host or cells: THP-1 cells, LPS-primed, nigericin-stimulated. As to conditions: LPS 1 μg/ml, nigericin 5 μM, resazurin read-out. Put shortly: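 THP-1 cells (25,000/well) primed with 1 μg/ml LPS in serum-free RPMI, given compound (8-point half-log, 10 μM top, 0.1% DMSO) for 3 hrs, then nigericin 5 μM for 1 hr at 37° C. Viability of remaining cells read by resazurin (100 μM, 1–2 hrs) fluorescence; IC50 from 4-parameter fit.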
On the technique in general: Alamar Blue is a resazurin reagent that responds to reducing activity.

Like-named read-outs stand apart in the source and are kept apart here.

Take `O=[N+]([O-])C=Cc1ccc2c(c1)OCO2` [3,4-methylenedioxy-β-nitrostyrene]: the “NLRP3 inhibition (potency in words)” value in the series with NLRP3 inflammasome is given as “weak”.
Turning to `COC1(c2cc(S(=O)(=O)NC(=O)Nc3c4c(cc5c3CCC5)CCC4)nn2C(C)C)COC1` [Example 42, N-((1,2,3,5,6,7-Hexahydro-s-indacen-4-yl)carbamoyl)-1-isopropyl-5-(3-methoxyoxetan-3-yl)-1H-pyrazole-3-sulfonamide], in series [1] (intravenous, dose 1 mg/kg), the AUC (usually concentration integrated over time) turned out to be 2960 ng·h/mL; the clearance amounted to 5.6 mL/min/kg; the half-life – broadly, the time in which the quantity being followed falls by half – is 0.7 h; the Vd is 0.24 L/kg. Further, at NLRP3 [2], the IC50 (in general, the concentration that gives 50% inhibition) was < 400 nM. In addition, the IC50 on NLRP3 [3] was < 40 nM.
As to `CCn1nc(S(=O)(=O)NC(=O)Nc2c3c(cc4c2CCC4)CCC3)cc1C1(OC)COC1` [Example 45, 1-Ethyl-N-((1,2,3,5,6,7-hexahydro-s-indacen-4-yl)carbamoyl)-5-(3-methoxyoxetan-3-yl)-1H-pyrazole-3-sulfonamide], in series [1] (intravenous, dose 2.99 mg/kg), the AUC is 2320 ng·h/mL, the clearance turned out to be 21.6 mL/min/kg, the half-life is 0.8 h and the Vd turned out to be 1.11 L/kg. Further, the IC50 on NLRP3 [2] is < 400 nM. Further, at NLRP3 [3], the concentration for half-maximal inhibition (IC50) is < 40 nM.
As for `CCn1nc(S(=O)(=O)NC(=O)Nc2c3c(cc4c2CCC4)CCC3)cc1C1(O)COC1` [Example 46, 1-Ethyl-N-((1,2,3,5,6,7-hexahydro-s-indacen-4-yl)carbamoyl)-5-(3-hydroxyoxetan-3-yl)-1H-pyrazole-3-sulfonamide], in series [1] (intravenous, dose 1.42 mg/kg), the exposure (AUC) was found to be 2380 ng·h/mL, the clearance was determined as 10 mL/min/kg, the half-life is 1.6 h and the Vd amounted to 0.56 L/kg. Also, on NLRP3 [2], the IC50 is < 400 nM. In addition, on NLRP3 [3], the IC50 is < 40 nM.
Take `COC1(c2cc(S(=O)(=O)NC(=O)Nc3c4c(cc5c3CCC5)CCC4)nn2C)CCOC1` (stereo not shown) [Example 48, N-((1,2,3,5,6,7-Hexahydro-s-indacen-4-yl)carbamoyl)-5-(3-methoxytetrahydrofuran-3-yl)-1-methyl-1H-pyrazole-3-sulfonamide]: in series [1] (intravenous, dose 1 mg/kg), the AUC was found to be 948 ng·h/mL, the clearance is 17.6 mL/min/kg, the half-life is 2.9 h and the Vd stood at 1.74 L/kg. For the same compound, the concentration for half-maximal inhibition (IC50) on NLRP3 [2] is < 400 nM. Also, on NLRP3 [3], the IC50 was < 40 nM.
Consider `Cn1nc(S(=O)(=O)NC(=O)Nc2c3c(cc4c2CCC4)CCC3)cc1C1(O)COC1` [Example 51, N-((1,2,3,5,6,7-Hexahydro-s-indacen-4-yl)carbamoyl)-5-(3-hydroxyoxetan-3-yl)-1-methyl-1H-pyrazole-3-sulfonamide], for which, in series [1] (intravenous, dose 1 mg/kg), the AUC came to 1860 ng·h/mL, the clearance came to 9 mL/min/kg, the half-life is 6.6 h and the Vd is 1.18 L/kg. Moreover, the IC50 on NLRP3 [2] is < 400 nM. Besides, the IC50 on NLRP3 [3] lay in the range of 40 to 160 nM.
For the compound `COC1(c2cc(S(=O)(=O)NC(=O)Nc3c4c(cc5c3CCC5)CCC4)nn2C)COC1` [Example 53, N-((1,2,3,5,6,7-Hexahydro-s-indacen-4-yl)carbamoyl)-5-(3-methoxyoxetan-3-yl)-1-methyl-1H-pyrazole-3-sulfonamide], in series [1] (intravenous, dose 1 mg/kg), the exposure (AUC) was determined as 1280 ng·h/mL, the clearance was 13.3 mL/min/kg, the half-life is 11.5 h and the Vd was found to be 3.48 L/kg. Further, at NLRP3 [2], the 50% inhibitory concentration (IC50) was < 400 nM. In addition, on NLRP3 [3], the 50% inhibitory concentration (IC50) was < 40 nM.
`COCCN(CCOC)C(=O)c1cc(S(=O)(=O)NC(=O)Nc2c3c(cc4c2CCC4)CCC3)nn1C` [Example 72, 3-(N-((1,2,3,5,6,7-Hexahydro-s-indacen-4-yl)carbamoyl)sulfamoyl)-N,N-bis(2-methoxyethyl)-1-methyl-1H-pyrazole-5-carboxamide]: in series [1] (intravenous, dose 2.88 mg/kg), the exposure (AUC) was 330 ng·h/mL, the clearance turned out to be 149 mL/min/kg, the half-life is 0.2 h and the Vd stood at 1.84 L/kg. The concentration for half-maximal inhibition (IC50) at NLRP3 [2] lay in the range of 400 to 800 nM. In addition, the IC50 on NLRP3 [3] fell in the range of 40 to 160 nM.
For the compound `COCCN(C)C(=O)c1cc(S(=O)(=O)NC(=O)Nc2c3c(cc4c2CCC4)CCC3)nn1C` [Example 73, 3-(N-((1,2,3,5,6,7-Hexahydro-s-indacen-4-yl)carbamoyl)sulfamoyl)-N-(2-methoxyethyl)-N,1-dimethyl-1H-pyrazole-5-carboxamide], in series [1] (intravenous, dose 1 mg/kg), the AUC is 1160 ng·h/mL, the clearance stood at 14.4 mL/min/kg, the half-life was 2.9 h and the Vd is 2.24 L/kg. In series [1] (oral, dose 3 mg/kg), the exposure (AUC) came to 2420 ng·h/mL and the concentration peaked (Cmax) at 701 ng/mL. The IC50 on NLRP3 [2] was 400 to 800 nM. For the same compound, the IC50 at NLRP3 [3] was 40 to 160 nM.
For `C[S+](C)[O-]` [dimethyl sulfoxide (DMSO), dimethyl sulfoxide], the “NLRP3 inhibition (potency in words)” value with NLRP3 inflammasome was “weak”.

(Values after patent US12012392B2, “Sulfonamide carboxamide compounds” (Inflazome Limited, priority 2017, dated 2024).)
